Assay results published in patent US12187728B2 (Raze Therapeutics, Inc., priority 2015, dated 2025).

Biological target: T1, Human MTHFD2 (Homo sapiens, UniProt P13995)
T1 construct: residues 36-350 in Uniport ID P13995; His6 (N); made in house; host or cells: E. coli
T1 sequence (P13995 36-350): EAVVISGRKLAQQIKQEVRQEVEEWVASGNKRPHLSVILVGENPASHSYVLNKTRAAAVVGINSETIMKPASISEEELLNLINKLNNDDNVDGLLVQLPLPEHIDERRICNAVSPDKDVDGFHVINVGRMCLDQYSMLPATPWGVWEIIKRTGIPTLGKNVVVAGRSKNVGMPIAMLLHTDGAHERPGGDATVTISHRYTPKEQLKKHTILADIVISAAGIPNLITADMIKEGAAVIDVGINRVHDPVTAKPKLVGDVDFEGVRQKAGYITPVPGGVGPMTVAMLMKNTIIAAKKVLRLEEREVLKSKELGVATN
Experiment: MTHFD2 Activity Assay (dehydrogenase activity, diaphorase/resazurin coupled fluorescence)
Assay type: biochemical
Settings: inhibitory activity (IC50 and/or binding constant); 0.2 nM MTHFD2, 11 concentrations
Method in brief: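 Resorufin fluorescence (ex 525, em 598 nm) reports NADH formed by the dehydrogenase via diaphorase coupling. Enzyme (0.2 nM, residues 36-350, N-His6) sat with compound 15 min before 70 μM CH2-THF and 1 mM NAD+ started a 30 min reaction. IC50s come from 4-parameter fits over 11 concentrations.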

| SMILES | IC50 [nM] |
| --- | --- |
| Cn1c(Nc2ccnc(C3CC(C(=O)O)C3)c2)nc2c1c(=O)n(Cc1ccc(Cl)c(Cl)c1)c(=O)n2C (centres unmarked) [Example 309, 3-(4-(1-(3,4-dichlorobenzyl)-3,7-dimethyl-2,6-dioxo-2,3,6,7-tetrahydro-1H-purin-8-ylamino)pyridin-2-yl)cyclobutanecarboxylic acid] | 10 to 1000 |
| Cn1c(Nc2ccncc2)nc2c1c(=O)n(Cc1ccc3ccccc3c1Cl)c(=O)n2C [Example 375, 1-((1-chloronaphthalen-2-yl)methyl)-3,7-dimethyl-8-(pyridin-4-ylamino)-1H-purine-2,6(3H,7H)-dione] | 10 to 1000 |
| Cn1c(N2CCCC(N)C2)nc2c1c(=O)n(Cc1cc3c(Cl)cccc3[nH]1)c(=O)n2C (centres unmarked) [Example 371, 8-(3-aminopiperidin-1-yl)-1-((4-chloro-1H-indol-2-yl)methyl)-3,7-dimethyl-1H-purine-2,6(3H,7H)-dione] | 10 to 1000 |
| Cn1c(Nc2ccnc([C@@H]3C[C@H]3CO)c2)nc2c1c(=O)n(Cc1ccc(Cl)c(Cl)c1)c(=O)n2C (single isomer, unassigned) [Example 337, 1-(3,4-dichlorobenzyl)-8-((2-((1R,2R)-2-(hydroxymethyl)cyclopropyl)pyridin-4-yl)amino)-3,7-dimethyl-1H-purine-2,6(3H,7H)-dione or 1-(3,4-dichlorobenzyl)-8-((2-((1S,2S)-2-(hydroxymethyl)cyclopropyl)pyridin-4-yl)amino)-3,7-dimethyl-1H-purine-2,6(3H,7H)-dione] | 1000 to 5000 |
| Cn1c(N[C@H]2CCCOC2)nc2c1c(=O)n(Cc1ccc(Cl)c(Cl)c1)c(=O)n2C [Example 46, 1-[(3,4-dichlorophenyl)methyl]-3,7-dimethyl-8-{[(3S)-oxan-3-yl]amino}-2,3,6,7-tetrahydro-1H-purine-2,6-dione] | 10 to 1000 |
| Cn1c(Nc2ccnc(CN)n2)nc2c1c(=O)n(Cc1cc3c(Cl)cccc3[nH]1)c(=O)n2C [Example 469, 8-(2-(aminomethyl)pyrimidin-4-ylamino)-1-((4-chloro-1H-indol-2-yl)methyl)-3,7-dimethyl-1H-purine-2,6(3H,7H)-dione] | 10 to 1000 |
| Cn1c(N[C@H]2C[C@@H](O)C2)nc2c1c(=O)n(Cc1ccc(Cl)c(Cl)c1)c(=O)n2C [Example 66, 1-[(3,4-dichlorophenyl)methyl]-3,7-dimethyl-8-{[(cis)-3-hydroxycyclobutyl]amino}-2,3,6,7-tetrahydro-1H-purine-2,6-dione] | 10 to 1000 |
| COC(=O)c1nc2c(c(=O)n(Cc3ccc(Cl)c(Cl)c3)c(=O)n2C)n1C [Example 161, Methyl 1-(3,4-dichlorobenzyl)-3,7-dimethyl-2,6-dioxo-2,3,6,7-tetrahydro-1H-purine-8-carboxylate] | 1000 to 5000 |
| Cn1c([C@H](N)Cc2ccncc2)nc2c1c(=O)n(Cc1cc3c(Cl)cccc3[nH]1)c(=O)n2C [Example 447, (R)-8-(1-amino-2-(pyridin-4-yl)ethyl)-1-((4-chloro-1H-indol-2-yl)methyl)-3,7-dimethyl-1H-purine-2,6(3H,7H)-dione] | 10 to 1000 |
| Cn1c(C(N)c2ccncc2)nc2c1c(=O)n(Cc1cc3c(Cl)cccc3[nH]1)c(=O)n2C (centres unmarked) [Example 461, 8-(amino(pyridin-4-yl)methyl)-1-((4-chloro-1H-indol-2-yl)methyl)-3,7-dimethyl-1H-purine-2,6(3H,7H)-dione] | 10 to 1000 |
| Cn1c(Nc2ccncc2)nc2c1c(=O)n(Cc1ccc3ccccc3c1)c(=O)n2C [Example 349, 3,7-dimethyl-1-(naphthalen-2-ylmethyl)-8-(pyridin-4-ylamino)-1H-purine-2,6(3H,7H)-dione] | 10 to 1000 |
| Cn1c(Nc2cccc([C@@H]3C[C@H]3C(N)=O)n2)nc2c1c(=O)n(Cc1cc3c(Cl)cccc3[nH]1)c(=O)n2C (racemic) [Example 364, (±)-trans-2-(6-((1-((4-chloro-1H-indol-2-yl)methyl)-3,7-dimethyl-2,6-dioxo-2,3,6,7-tetrahydro-1H-purin-8-yl)amino)pyridin-2-yl)cyclopropanecarboxamide] | 10 to 1000 |
| Cn1c(NC[C@H](O)CO)nc2c1c(=O)n(Cc1ccc(Cl)c(Cl)c1)c(=O)n2C [Example 14, 1-[(3,4-dichlorophenyl)methyl]-8-{[(2S)-2,3-dihydroxypropyl]amino}-3,7-dimethyl-2,3,6,7-tetrahydro-1H-purine-2,6-dione] | 10 to 1000 |
| COc1cccc2[nH]c(Cn3c(=O)c4c(nc(Nc5ccncc5)n4C)n(C)c3=O)cc12 [Example 370, 1-((4-methoxy-1H-indol-2-yl)methyl)-3,7-dimethyl-8-(pyridin-4-ylamino)-1H-purine-2,6(3H,7H)-dione] | 10 to 1000 |
| Cn1c(Nc2ccnc(C3CC(CO)C3)c2)nc2c1c(=O)n(Cc1ccc(Cl)c(Cl)c1)c(=O)n2C (centres unmarked) [Example 320, 1-(3,4-dichlorobenzyl)-8-(2-(3-(hydroxymethyl)cyclobutyl)pyridin-4-ylamino)-3,7-dimethyl-1H-purine-2,6(3H,7H)-dione] | 10 to 1000 |
| CC(c1nc2c(c(=O)n(Cc3cc4c(Cl)cccc4[nH]3)c(=O)n2C)n1C)N(C)C (centres unmarked) [Example 457, 1-[(4-chloro-1H-indol-2-yl)methyl]-8-[1-(dimethylamino)ethyl]-3,7-dimethyl-purine-2,6-dione] | 10 to 1000 |
| Cn1c(N[C@H]2CC[C@@H](O)C2)nc2c1c(=O)n(Cc1ccc(Cl)c(Cl)c1)c(=O)n2C (single isomer, unassigned) [Example 71, 1-(3,4-dichlorobenzyl)-8-((1S,3R)-3-hydroxycyclopentylamino)-3,7-dimethyl-1H-purine-2,6(3H,7H)-dione or 1-(3,4-dichlorobenzyl)-8-((1R,3S)-3-hydroxycyclopentylamino)-3,7-dimethyl-1H-purine-2,6(3H,7H)-dione] | 10 to 1000 |
| Cn1c(N[C@@H]2CCC[C@@H]2N)nc2c1c(=O)n(Cc1cc3c(Cl)cccc3[nH]1)c(=O)n2C [Example 395, 8-((1R,2S)-2-aminocyclopentylamino)-1-((4-chloro-1H-indol-2-yl)methyl)-3,7-dimethyl-1H-purine-2,6(3H,7H)-dione] | 1000 to 5000 |
| Cn1c(Nc2ccc(CO)nc2)nc2c1c(=O)n(Cc1cc3c(Cl)cccc3[nH]1)c(=O)n2C [Example 407, 1-((4-chloro-1H-indol-2-yl)methyl)-8-(6-(hydroxymethyl)pyridin-3-ylamino)-3,7-dimethyl-1H-purine-2,6(3H,7H)-dione] | 10 to 1000 |
| Cn1c(Nc2ccncc2)nc2c1c(=O)n(Cc1cc3c(C#N)cccc3[nH]1)c(=O)n2C [Example 350, 2-((3,7-dimethyl-2,6-dioxo-8-(pyridin-4-ylamino)-2,3,6,7-tetrahydro-1H-purin-1-yl)methyl)-1H-indole-4-carbonitrile] | 5000 to 10000 |
| Cn1c(NC2(C(=O)O)CCCC2)nc2c1c(=O)n(Cc1ccc(Cl)c(Cl)c1)c(=O)n2C [Example 148, 1-(1-(3,4-dichlorobenzyl)-3,7-dimethyl-2,6-dioxo-2,3,6,7-tetrahydro-1H-purin-8-ylamino)cyclopentanecarboxylic acid] | 10 to 1000 |
| CC(=O)Nc1nc2c(c(=O)n(Cc3ccc(Cl)c(Cl)c3)c(=O)n2C)n1C [Example 274, N-[1-[(3,4-dichlorophenyl)methyl]-3,7-dimethyl-2,6-dioxo-purin-8-yl]acetamide] | 1000 to 5000 |
| CCc1cccc2[nH]c(Cn3c(=O)c4c(nc(Nc5ccncc5)n4C)n(C)c3=O)cc12 [Example 387, 1-((4-ethyl-1H-indol-2-yl)methyl)-3,7-dimethyl-8-(pyridin-4-ylamino)-1H-purine-2,6(3H,7H)-dione] | 10 to 1000 |
